The values that follow come from ChEMBL document CHEMBL4033713, “Click strategy using disodium salts of amino acids improves the water solubility of plinabulin and KPU-300” (Bioorg Med Chem, 2017).

Values after ≈ are worked out from the molar mass of the structure shown.

Data set [1] addresses T1, Liver carboxylesterase (Sus scrofa, UniProt Q29550).
T1 sequence (Q29550 whole entry): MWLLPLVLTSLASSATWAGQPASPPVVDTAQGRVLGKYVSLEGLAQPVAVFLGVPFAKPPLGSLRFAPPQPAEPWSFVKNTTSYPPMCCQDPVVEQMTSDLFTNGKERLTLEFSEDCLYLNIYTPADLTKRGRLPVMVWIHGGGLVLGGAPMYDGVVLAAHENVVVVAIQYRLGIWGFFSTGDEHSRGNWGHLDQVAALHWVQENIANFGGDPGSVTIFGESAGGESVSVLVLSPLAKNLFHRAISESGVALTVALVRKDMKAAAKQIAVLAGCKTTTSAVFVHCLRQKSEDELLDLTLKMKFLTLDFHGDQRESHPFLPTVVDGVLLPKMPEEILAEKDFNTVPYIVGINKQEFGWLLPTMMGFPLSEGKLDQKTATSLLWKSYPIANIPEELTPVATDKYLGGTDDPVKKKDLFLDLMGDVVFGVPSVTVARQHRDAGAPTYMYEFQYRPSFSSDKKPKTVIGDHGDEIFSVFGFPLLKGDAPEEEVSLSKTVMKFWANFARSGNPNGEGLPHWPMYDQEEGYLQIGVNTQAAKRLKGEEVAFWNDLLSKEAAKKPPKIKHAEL
Kind of data set: Drug metabolism assessed as porcine liver carboxylic-ester hydrolase-mediated compound hydrolysis by measuring half-life at 500 ug by HPLC analysis. The conditions noted are these: pig, porcine liver carboxylic-ester hydrolase (liver esterase). The format is ADME.

A short description of data set [2]: Solubility of the compound in distilled water after 15 mins by HPLC method. The format is physicochemical.
For data set [3], the target named is T1, Liver carboxylesterase. Kind of data set: Drug metabolism assessed as porcine liver carboxylic-ester hydrolase-mediated compound hydrolysis by measuring half-life by HPLC analysis. The format is ADME. To be noted: pig, porcine liver carboxylic-ester hydrolase (liver esterase).
For data set [4], the target named is T1, Liver carboxylesterase. The experiment in a line: Drug level treated with Sodium (S)-2-(4-(4-((((3Z,6Z)-6-benzylidene-3-((5-(tertbutyl)-1H-imidazol-4-yl)methylene)-5-oxo-3,4,5,6-tetrahydropyrazin-2-yl)oxy)methoxy)-4-oxobutyl)-1H-1,2,3-triazol-1-yl)pentanedioate assessed as porcine liver carboxylic-ester hydrolase-mediated metabolite formation after 48 hrs by HPLC method. The conditions noted are these: pig.

Data set [5] deals with T1, Liver carboxylesterase. The experiment in a line: Drug level treated with Sodium (S)-2-(4-(4-((((3Z,6Z)-6-(3-benzoylbenzylidene)-5-oxo-3-(pyridine-2-ylmethylene)-3,4,5,6-tetrahydropyrazin-2-yl)oxy)methoxy)-4-oxobutyl)-1H-1,2,3-triazol-1-yl)succinate assessed as porcine liver carboxylic-ester hydrolase-mediated metabolite formation after 48 hrs by HPLC method. The conditions noted are these: pig. The format is ADME.

Data set [6] is described as follows: Solubility of the compound in water. The format is physicochemical.
In data set [7] the target is T1, Liver carboxylesterase. Kind of data set: Stability of the compound assessed as porcine liver esterase-mediated hydrolysis by measuring compound remaining after 48 hrs by HPLC method. The format is ADME. To be noted: pig, read-out: Stability.
Data set [8] concerns the target T1, Liver carboxylesterase. The experiment in a line: Drug level treated with Sodium (S)-2-(4-(4-((((3Z,6Z)-6-benzylidene-3-((5-(tertbutyl)-1H-imidazol-4-yl)methylene)-5-oxo-3,4,5,6-tetrahydropyrazin-2-yl)oxy)methoxy)-4-oxobutyl)-1H-1,2,3-triazol-1-yl)succinate assessed as porcine liver carboxylic-ester hydrolase-mediated metabolite formation after 48 hrs by HPLC method. The format is ADME. To be noted: pig.

Broadly, the half-life is the time in which the quantity being followed falls by half. As a reminder, the solubility is the concentration that dissolves in the medium under given conditions. Low readings indicate little dissolved substance, high ones much dissolved substance. With `CC(C)(C)c1[nH]cnc1/C=c1\[nH]c(=O)/c(=C/c2ccccc2)nc1OCOC(=O)CCCc1cn(C[C@H](O)CC(=O)[O-])nn1.[Na+]`, the half-life on Liver carboxylesterase [1] is 0.37 h. The molecule also came in with a solubility at 0.25 h in data set [2] of 850 µg/mL.
Consider `CC(C)(C)c1[nH]cnc1/C=c1\[nH]c(=O)/c(=C/c2ccccc2)nc1OCOC(=O)CCCc1cn([C@@H](CC(=O)[O-])C(=O)[O-])nn1.[Na+].[Na+]`, for which, in data set [2], the solubility at 0.25 h was above 100000 µg/mL. In addition, the half-life on Liver carboxylesterase [3] was 12 h.
Taken in the same sequence, the figures for `CC(C)(C)c1[nH]cnc1/C=c1\[nH]c(=O)/c(=C/c2ccccc2)nc1OCOC(=O)CCCc1cn([C@H](CCC(=O)[O-])C(=O)[O-])nn1.[Na+].[Na+]` were above 100000 µg/mL and 9 h.
Take `C=O` [FORMALDEHYDE]: on Liver carboxylesterase [4], the Drug metabolism result is “Metabolite_Detected”.
On to `O=C(c1ccccc1)c1cccc(/C=c2\[nH]c(=O)/c(=C/c3ccccn3)[nH]c2=O)c1`, for which, on Liver carboxylesterase [5], the Drug metabolism result was “Metabolite_Detected”. The solubility in data set [6] was below 0.1 µg/mL.
`CC(C)(C)c1[nH]cnc1/C=c1\[nH]c(=O)/c(=C/c2ccccc2)nc1OCOC(=O)CCCc1cn([C@@H]2O[C@H](CO)[C@H](O)[C@H](O)[C@H]2O)nn1` yielded a solubility at 0.25 h in data set [2] of 7.5 µg/mL (≈ 11.3 µM).
For `O=C(O)CC(C(=O)O)n1cc(CCCC(=O)OCOc2n/c(=C\c3cccc(C(=O)c4ccccc4)c3)c(=O)[nH]/c2=C\c2ccccn2)nn1` (single isomer, unassigned), the remaining at 48 h on Liver carboxylesterase [7] turned out to be 20%. Besides, in data set [2], the solubility at 0.25 h came to 80000 µg/mL (≈ 118000 µM). For the same molecule, on Liver carboxylesterase [3], the half-life was 8.7 h.
The molecule `CC(C)(C)c1[nH]cnc1/C=c1\[nH]c(=O)/c(=C/c2ccccc2)nc1OCOC(=O)CCCc1cn([C@@H](CO)C(=O)[O-])nn1.[Na+]` gave a solubility in data set [6] of 6380 µg/mL. Further, the half-life on Liver carboxylesterase [3] is 1 h.
Turning to `CC(C)(C)c1[nH]cnc1/C=c1\[nH]c(=O)/c(=C/c2ccccc2)[nH]c1=O` [PLINABULIN], the solubility in data set [6] is below 0.1 µg/mL. Moreover, the Drug metabolism entry at Liver carboxylesterase [4] and on Liver carboxylesterase [8] was “Metabolite_Detected” throughout.
Take `CC(C)(C)c1[nH]cnc1/C=c1\[nH]c(=O)/c(=C/c2ccccc2)nc1OCOC(=O)CCCc1cn([C@@H](CCC(=O)[O-])C(=O)[O-])nn1.[Na+].[Na+]`: in data set [2], the solubility at 0.25 h is above 100000 µg/mL. In addition, the half-life on Liver carboxylesterase [3] was 5.4 h.
`CC(C)(C)c1[nH]cnc1/C=c1\[nH]c(=O)/c(=C/c2ccccc2)nc1OCOC(=O)CCCc1cn(CC(=O)[O-])nn1.[Na+]` came in with a solubility at 0.25 h in data set [2] of 590 µg/mL.
